Experimental data published in US12325708B2, “Adenosine 2 receptor antagonists” (Nektar Therapeutics, priority 2019, dated 2025).
pKi: −log10 of the molar value.

Columns and labels:
[1] = Brain-to-plasma ratio (B/P) after administration; type: in vivo, Sprague-Dawley rats; conditions: Sprague-Dawley, rat, oral, 2.5 mg/kg; Table 6; brain-to-plasma ratio at 1 h
From the text: A similar unexpected result was obtained when the phenyl ring present on Compound 1 was replaced with a halogen substituted pyridine. The halogen was previously introduced on the phenyl ring with the aim of blocking a possible metabolic soft-spot, with similar results observed as for Compound 1 in terms of exposure, clearance and bioavailability (Compound 10 and Compound 15). The substituted pyridine ring was designed to modulate the lipophilicity and polar surface area, as well as to address metabolic soft-spot concerns. Clearance and bioavailability parameters remain similar between substituted phenyl and pyridine (Compound 4 and Compound 14) analogs, which span a range in cLogP of 2.7-3.2. It was therefore surprising the significant improvement in exposure and clearance observed for the more lipophilic Compound 19. […] A compound is commonly deemed to be a brain penetrant if the brain-to-blood/plasma concentration ratio (B/P) is greater than 0.04 using methods as known in the art (Schaffer, Annual Reports in Medicinal Chemistry, 45:55-70, 2010).
Plasma pharmacokinetic parameters were determined following oral (PO) administration of further compounds essentially as described in Example 28 with the results shown in Table 6.

[2] = Plasma pharmacokinetic parameters following intravenous (IV) or oral (PO) administration in rats; type: in vivo, Sprague-Dawley rats; conditions: male, Sprague-Dawley, rat, plasma, Table 6; for AUC / bioavailability: 2.5 mg/kg, oral (PO) administration essentially as described in Example 28; for clearance: intravenous, 0.5 mg/kg, essentially as described in Example 28; for bioavailability: po
Procedure: (§1) Adult male Sprague-Dawley rats (230-250 g) (Charles River Labs, Hollister, CA) were utilized for the study. There were 2 rats/group. All animals were food fasted overnight with water provided ad libitum at all times. Compounds 1, 4, 14 and 19 were synthesized as described in Examples 2, 17, 7, and 12, respectively, and formulated in injectable water.
(§2) The morning of each dosing, individual doses were calculated based on current body weights on the day of dosing. The jugular vein cannula (JVC) and the carotid artery cannula (CAC) were externalized, flushed with HEP/saline (10 IU/mL HEP/mL saline), plugged, and labeled to identify the jugular vein and the carotid artery. The IV group animals were dosed at 0.5 mg/kg of Compound 1, 4, 14 or 19, respectively, intravenously via the jugular vein, while the PO dose was administered 2.5 mg/kg of Compound 1, 4, 14 or 19, respectively, orally via gavage. For the IV group, immediately following the dose of test article, the dead volume of the catheter was flushed with 0.9% saline to ensure the animals received the full dose.
Approximately 0.2 mL of blood was collected per time point from JVC. Blood samples were collected at 2 (IV group only), 5, 15, 30, 60, 120, 240, 360, 420 (Compound 19 only), 480, 720 (Compound 19 only), and 1440 minutes via the CAC and transferred immediately into K2EDTA coated tubes pre-loaded 2 μl with quenching cocktail and placed on wet ice. The samples were centrifuged within 30 min after collection at 10,000 RPM for 5 minutes and the resulting plasma was separated. Plasma was transferred into microfuge tubes and placed on dry ice immediately. The plasma samples were stored at approximately −70° C. until bioanalysis.
Plasma samples were extracted by protein precipitation with acetonitrile containing 0.1% formic acid and doxepin for Compound 1 (available from Sigma-Aldrich) or SCH58261 for Compounds 4, 14 and 19 (available from Sigma-Aldrich) as an internal standard. Following vortex and centrifugation, supernatant was diluted 3-fold with water containing 0.1% formic acid and analyzed by LC-MS/MS.
Pharmacokinetic parameters (PK) were determined by non-compartmental analysis (NCA) using Phoenix 64 WinNonlin (version 8) and Dotmatics (version 5.0). Nominal doses and time points were used for the analysis.
The following PK parameters were estimated using plasma concentration-time profile of each animal with the results presented in Table 3: • AUCinf Area under the concentration-time from zero to time infinity • AUClast Area under the concentration-time from zero to time of last concentration value • F Bioavailability • CL Total body clearance • Cmax Maximum (peak) concentration • MRTlast Mean residence time to last observable concentration • Tmax Time to reach maximum or peak concentration following administration • Vss Volume of distribution at steady state
as §1, with “Compound 1 was” for “Compounds 1, 4, 14 and 19 were”, “Example 2” for “Examples 2, 17, 7, and 12, respectively,”
as §2, with “1” for “1, 4, 14 or 19, respectively,”
Approximately 0.2 mL of blood was collected per time point from JVC. […]

[3] = molecular target: T1, A1 receptor (Homo sapiens, UniProt P30542); experiment: Radioligand receptor binding assay, A1 receptor; conditions: cell membranes overexpressing A1 receptor, read-out: Potency Ki A1
T1 construct: purchased
T1 sequence (P30542 1-326): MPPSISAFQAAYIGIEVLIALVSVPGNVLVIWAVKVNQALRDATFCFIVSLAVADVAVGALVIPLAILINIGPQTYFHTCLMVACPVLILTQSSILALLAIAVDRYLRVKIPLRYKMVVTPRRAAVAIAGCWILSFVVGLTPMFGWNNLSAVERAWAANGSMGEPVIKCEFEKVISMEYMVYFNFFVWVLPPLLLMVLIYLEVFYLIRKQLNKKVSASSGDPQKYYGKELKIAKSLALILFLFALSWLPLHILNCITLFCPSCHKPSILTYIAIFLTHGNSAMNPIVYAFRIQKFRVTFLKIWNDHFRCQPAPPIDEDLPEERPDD
Procedure: (§3) Using conventional receptor binding assay techniques, Compounds 1-24 were assayed to determine binding activity at the A2A, A1, and A3 receptors with the results shown in Table 7.
(§4) Receptor binding affinity of Compounds 1-24 was measured using radioligand binding assays using commercially obtained cell membranes prepared from cell lines overexpressing the A2A, A1, or A3 receptors. Briefly, cell membrane preparations from cells expressing the specific receptor were mixed with the appropriate [^3H]-labeled tracer for the specific receptor and the test compound or a known inhibitor of receptor-ligand binding. Following 60 min incubation at room temperature to allow receptor-ligand complex formation, the complexes were collected by filtration, washed with 50 mM Tris HCl (pH 7.5) to remove radioligand that was not receptor-bound, and the remaining radioactivity determined by liquid scintillation counting. Specific radioligand binding was calculated for each test compound concentration and IC50 values were determined by non-linear, regression analysis. Inhibition constants (Ki) were calculated using the equation of Cheng and Prusoff using the observed IC50 of the tested compound, the concentration of radioligand employed in the assay and the experimentally determined values for the Kd of the ligand.

[4] = molecular target: T2, A2A receptor (Homo sapiens, UniProt P29274); experiment: Radioligand receptor binding assay, A2A receptor; conditions: cell membranes overexpressing A2A receptor, read-out: Potency Ki A2A
T2 construct: purchased
T2 sequence (P29274 whole entry): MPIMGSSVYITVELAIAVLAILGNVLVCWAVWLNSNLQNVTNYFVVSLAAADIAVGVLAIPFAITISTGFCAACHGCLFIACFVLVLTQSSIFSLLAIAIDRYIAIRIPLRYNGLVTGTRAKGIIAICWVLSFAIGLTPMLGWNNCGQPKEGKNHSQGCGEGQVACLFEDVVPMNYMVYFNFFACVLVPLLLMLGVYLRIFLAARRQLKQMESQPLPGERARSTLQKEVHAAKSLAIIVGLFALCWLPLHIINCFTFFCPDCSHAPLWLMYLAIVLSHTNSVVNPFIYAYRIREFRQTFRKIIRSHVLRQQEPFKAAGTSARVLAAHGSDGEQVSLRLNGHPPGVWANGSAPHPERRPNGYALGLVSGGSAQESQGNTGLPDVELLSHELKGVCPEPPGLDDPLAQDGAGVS
Procedure: as §3, §4

Row | Structure (SMILES) | Kp at 1 h [1] | AUC [2] [ng·h/mL] | clearance [2] [mL/min/kg] | bioavailability [2] [%] | pKi [3] | pKi [4]
1 | [2H]C([2H])([2H])OC([2H])([2H])C([2H])([2H])Oc1cnc(N2CCN(CCN(C)c3cc4nc(-c5ncco5)nn4c(N)n3)CC2)c(F)c1 [Compound 13, N^7-(2-{4-[3-fluoro-5-({2-[(^2H3)methyloxy](^2H4)ethyl}oxy)pyridin-2-yl]piperazin-1-yl}ethyl)-N^7-methyl-2-(1,3-oxazol-2-yl)[1,2,4]triazolo[1,5-c]pyrimidine-5,7-diamine] | 0.06 | 709 | 33 | 57 | 4.49 | 8.40
2 | CN(CCN1CCN(c2ccc(OCCOC(F)(F)F)cc2)CC1)c1cc2nc(-c3ncco3)nn2c(N)n1 [Compound 5, N^7-methyl-2-(1,3-oxazol-2-yl)-N^7-[2-(4-{4-[2-(trifluoromethoxy)ethoxy]phenyl}piperazin-1-yl)ethyl][1,2,4]triazolo[1,5-c]pyrimidine-5,7-diamine] | 0.1 | 971 | 21 | 48 | < 5.00 | 8.15
3 | [2H]C([2H])([2H])OC([2H])([2H])C([2H])([2H])Oc1ccc(N2C([2H])([2H])C([2H])([2H])N(C([2H])([2H])C([2H])([2H])N(c3cc4nc(-c5ncco5)nn4c(N)n3)C([2H])([2H])[2H])C([2H])([2H])C2([2H])[2H])cc1 [Compound 20, N^7-(^2H3)methyl-N^7-[2-{4-[4-({2-[(^2H3)methyloxy](^2H4)ethyl}oxy)phenyl](^2H8)piperazin-1-yl}(^2H4)ethyl]-2-(1,3-oxazol-2-yl)[1,2,4]triazolo[1,5-c]pyrimidine-5,7-diamine] | 0.05 | 1170 | 17 | 50 | < 4.00 | 8.22
4 | COCCOc1ccc(N2CCN(CCN(C)c3cc4nc(-c5ncco5)nn4c(N)n3)CC2)c(OC)c1 [Compound 17, N^7-(2-{4-[2-methoxy-4-(2-methoxyethoxy)phenyl]piperazin-1-yl}ethyl)-N^7-methyl-2-(1,3-oxazol-2-yl)[1,2,4]triazolo[1,5-c]pyrimidine-5,7-diamine] | 0.03 | 406 | 44 | 43 | 4.93 | 7.70
5 | [2H]C([2H])([2H])OC([2H])([2H])C([2H])([2H])Oc1ccc(N2CCN(CCN(c3cc4nc(-c5ncco5)nn4c(N)n3)C([2H])([2H])[2H])CC2)cc1 [Compound 18, N^7-(^2H3)methyl-N^7-(2-{4-[4-({2-[(^2H3)methyloxy](^2H4)ethyl}oxy)phenyl]piperazin-1-yl}ethyl)-2-(1,3-oxazol-2-yl)[1,2,4]triazolo[1,5-c]pyrimidine-5,7-diamine] | 0.09 | 900 | 33 | 71 | < 4.00 | 8.10
6 | COCCOc1ccc(N2CCN(CCNc3cc4nc(-c5ncco5)nn4c(N)n3)CC2)cc1 [Compound 24, N^7-(2-{4-[4-(2-methoxyethoxy)phenyl]piperazin-1-yl}ethyl)-2-(1,3-oxazol-2-yl)[1,2,4]triazolo[1,5-c]pyrimidine-5,7-diamine] | 0.11 | 1070 | 28 | 70 | < 5.00 | 7.37
7 | [2H]C([2H])([2H])N(CCN1CCN(c2ccc(OCCOC)cc2)CC1)c1cc2nc(-c3ncco3)nn2c(N)n1 [Compound 6, N^7-(2-{4-[4-(2-methoxyethoxy)phenyl]piperazin-1-yl}ethyl)-N^7-(^2H3)methyl-2-(1,3-oxazol-2-yl)[1,2,4]triazolo[1,5-c]pyrimidine-5,7-diamine] | 0.05 | 852 | 34 | 64 | < 5.40 | 7.92
8 | [2H]C([2H])(N1CCN(c2ccc(OCCOC)cc2)CC1)C([2H])([2H])N(C)c1cc2nc(-c3ncco3)nn2c(N)n1 [Compound 9, N^7-[2-{4-[4-(2-methoxyethoxy)phenyl]piperazin-1-yl}(^2H4)ethyl]-N^7-methyl-2-(1,3-oxazol-2-yl)[1,2,4]triazolo[1,5-c]pyrimidine-5,7-diamine] | 0.04 | 1170 | 23 | 65 | < 5.40 | 8.22
9 | [2H]C([2H])([2H])OCCOc1cnc(N2CCN(CCN(C)c3cc4nc(-c5ncco5)nn4c(N)n3)CC2)c(F)c1 [Compound 11, N^7-{2-[4-(3-fluoro-5-{2-[(^2H3)methyloxy]ethoxy}pyridin-2-yl)piperazin-1-yl]ethyl}-N^7-methyl-2-(1,3-oxazol-2-yl)[1,2,4]triazolo[1,5-c]pyrimidine-5,7-diamine] | – | 708 | 30 | 63 | 4.77 | 8.64
